Series [1] concerns hexobarbital oxidase. The series can be described thus: in vivo hexobarbital narcosis period (change of hexobarbital oxidase activity). The arrangement: species or system Female Hann.-Wistar rats. The following applies: rat, hexobarbital sodium 60 mg./kg. i.v., ± S.E., n=10; for Hexobarbital narcosis period in % of control, 1 hour: 1 hour after administration, control 44.3 ± 5.67 min.; for Hexobarbital narcosis period in % of control, 24 hours: 24 hours after administration, control 47.0 ± 5.21 min. The protocol: The enzyme inhibiting activity of the new compounds was tested in vivo, by measuring the change of hexobarbital oxidase activity. Female Hann.-Wistarrats, each weighing 50 to 60 g. were treated orally with a single 40 mg./kg. dose of the test compound. One and 24 hours after the administration of the active ingredient, the animals were narcotized with a 60 mg./kg. i.v. dosage of hexobarbital sodium, and the time elapsed until complete wakening was measured (Noordhoek, J.: Eur. J. Pharmacol., 3, 242 (1968)). The data were recorded, and the mean values, the standard errors as well as the percentage increase with respect to the controls were calculated for each group. […] The hexobarbital concentration of the plasm, measured on the instant wakening, was the same for both the treated and the control animals, and thus the increase of narcosis period was not due to a certain central nervous interaction (Jori, A. et al.: Biochem. Pharmacol., 19, 2687 (1970)).
The control group was treated with placebo.

Series [2] can be described thus: acute oral toxicity. The following applies: in vivo; rat, single 500 mg./kg. oral dose, 14 days observation, n=10; read-out: Perished animals. The procedure: The acute toxicity of the compounds having the formula (I) was tested on H-Wistar rats of both sexes, each weighing 160 to 180 g. The compounds were administered in a single 500 mg./kg. oral dose.
Series [3] concerns aniline hydroxylase. The series can be described thus: aniline hydroxylase activity of liver after oral treatment (p-amino-phenol formation). The class given is in vivo, Female H.-Wistar rats. The following applies: rat liver, 2 hours after single 40 mg./kg. oral dose; ± S.E.; control 19.8 ± 0.53 nmoles/g. of liver/min. The procedure:
(§1) The enzyme inhibiting activity of the compounds of the formula (I) was further tested by determining the activity of the polysubstrate liver monooxygenase enzyme system after treatment with placebo and the compounds according to the invention, respectively. Female H.-Wistar rats weighing 50 to 60 g. each were administered a single 40 mg./kg. oral dose of the test compounds. Two hours after treatment the animals were decapitated and the livers were removed. After rinsing with a physiological saline solution at 0° C., drying and weighing, the livers were homogenized in a 0.1 molar Tris-HCl buffer (pH=7.4), containing 1.15% of potassium chloride at 0° C., centrifuged at 9000 g for 20 minutes, and the supernatant (postmitochondrial fraction) was used for further investigations. The microsomal fraction was prepared following the method developed by Cinti D. L. et al.: Biochem. Pharmacol., 21, 3249 (1972). The activity of aniline hydroxylase was determined from the velocity of p-amino-phenol formation according to Chabra R. S. et al.: Toxicol. Appl. Pharmacol. 22, 50 (1972). The activity of the aminopyrine demethylase was measured from the amount of the formaldehyde formed, according to Gourlay G. K. et al: Biochem. Pharmacol., 27, 965 (1978). The control groups were treated with placebo. The results are shown in Table 2, expressed in percentage of the control.

The subject of series [4] is aminopyrine demethylase. The series can be described thus: aminopyrine demethylase activity of liver after oral treatment (formaldehyde formed). The class given is in vivo, Female H.-Wistar rats. Particulars: rat liver, 2 hours after single 40 mg./kg. oral dose; ± S.E.; control 260.7 ± 11.2 nmoles/g. of liver/min. The protocol:
as §1

The conditions of series [5]: H. Ippen: Index Pharmacorum (1970); cited from earlier work.

Consider `CCC(O)(c1ccc(OCCCN2CCN(C(c3ccccc3)c3ccccc3)CC2)cc1)c1ccccc1OC` (stereo not drawn) [A, α-ethyl-α-(2-methoxyphenyl)-4-[3-(4-benzhydryl-piperazin-1-yl)-propoxy]-benzylalcohol], for which, in series [1] (single oral dose 40 mg./kg.), the “Hexobarbital narcosis period in % of control, 1 hour” value was 116 ± 6.7 % of control and the “Hexobarbital narcosis period in % of control, 24 hours” value was 172 ± 8.7 % of control. Besides, in series [2], the mortality at 336 h came to 0%. In addition, the “Aniline hydroxylase activity, in percentage of the control” value in series [3] is given as 72 ± 5.8 % of control. The “Aminopyrine demethylase activity, in percentage of the control” value in series [4] is 71 ± 8.1 % of control.

With `CCCC(C(=O)OCCN(CC)CC)(c1ccccc1)c1ccccc1` [Proadiphene, (2-diethylaminoethyl)-α,α-diphenyl valerate, reference compound], the anticonvulsive side effect entry in series [5] is listed as “exerted an anticonvulsive side effect”. For the same compound, in series [1] (reference dose 100 mg./kg.), the “Hexobarbital narcosis period in % of control, 1 hour” value was 241 ± 9.6 % of control and the “Hexobarbital narcosis period in % of control, 24 hours” value is 44 ± 5.7 % of control. In series [2], the mortality at 336 h was found to be 90%.

(Values after patent publication US4504481A, “Benzhydrylpiperazine derivatives, process for their preparation and pharmaceutical compositions containing them” (Richter Gedeon Vegyeszeti Gyar Rt., priority 1982, dated 1985).)
